In patent publication US8039505B2, “Compounds for modulating T-cells” (University of Utah Research Foundation, priority 2007, dated 2011):
Like-named read-outs stand apart in the source and are kept apart here.

Assay: Pharmacokinetics in male Swiss Albino mouse, intravenous and oral (LC-MS/MS of plasma)
Type: in vivo
Experimental: The pharmacokinetics of 1H-indole-3-carbaldehyde quinolin-8-ylhydrazone (Compound C3) was evaluated following intravenous (3 mg/kg) and oral (15 mg/kg) solution administration of 1H-indole-3-carbaldehyde quinolin-8-ylhydrazone in male Swiss Albino mouse. The effect of the Test Item, 1H-indole-3-carbaldehyde quinolin-8-ylhydrazone on complete blood count (CBC) was also evaluated. Pharmacokinetic phase consisted of two groups, Group 1 and Group 2. Animals in Group 1 were given intravenous bolus dose in a vehicle containing 5% N,N-dimethylacetamide, 5% CREMOPHOR™ EL and 90% Dextrose solution (5% w/v) and those in Group 2 were given oral solution dose in a vehicle, the composition of which was same as that of intravenous formulation. In addition, the effect of Test Item on complete blood count was evaluated following intravenous and oral dose administration along with its vehicle controls. A total of four groups were used each with 6 mice.
From the pharmacokinetic group, predose samples were collected from 3 animals in each group. Following dose administration terminal blood samples were collected at each of the following time points (in triplicate): 0.083 (only for intravenous), 0.25, 0.5, 1, 2, 4, 8, 12 and 24 hours. At each time point, approximately 500 μL of whole blood was withdrawn from the retro orbital sinus and collected in labeled tubes containing dipotassium EDTA as anticoagulant (20 μL of 200 mM K2 EDTA solution per mL of blood). Plasma was separated by centrifuging the whole blood at about 2500 g for 10 minutes at 4° C. within 1 h of sample collection. Separated plasma was stored below minus 50° C. until bioanalysis. A sensitive LC-MS/MS method was used for the quantitation of 1H-indole-3-carbaldehyde quinolin-8-ylhydrazone. The lower limit of quantitation was 1.04 ng/mL. For CBC evaluation, approximately 500 μL of blood was collected in labeled tubes containing dipotassium EDTA as anticoagulant (10 […]/mL of blood) after 48 h of dose administration from all animals.
A total of 57 mice were divided into an intravenous dose group of 30 mice (Group 1) and oral dose group of 27 mice (Group 2). Animals in Group 1 received intravenous bolus dose via tail vein at 3 mg/kg and animals in Group 2 received oral solution dose via gavage at 15 mg/kg. Three animals were administered the dose for each time point (intravenous: 10 time points; Oral: 9 time points). Terminal blood samples were collected from each mouse under light ether anesthesia and plasma was separated.
Animals in Group 1 were administered an intravenous bolus dose via the tail vein (dosing volume: 6 mL/kg). Animals in Group 2 received oral dose by gavage with an oral dosing needle (dosing volume: 10 mL/kg). Animals in the CBC evaluation group were treated same as above except the animals in control group received vehicle instead of formulation.
Pharmacokinetic group: Predose samples were collected from 3 animals in each group. Following dose administration terminal blood samples were collected at each of the following time points (in triplicate): 0.083 (only for intravenous), 0.25, 0.5, 1, 2, 4, 8, 12 and 24 hours. For each time point, approximately 500 μL of whole blood was withdrawn from the retro orbital sinus and collected in labeled tubes containing dipotassium EDTA as anticoagulant (20 μL of 200 mM K2 EDTA solution per mL of blood). Plasma was separated by centrifuging the whole blood at about 2500 g for 10 minutes at 4° C. within 1 h of sample collection. Separated plasma was stored below minus 50° C. until bioanalysis.
An LC-MS/MS method was developed and employed for the quantitation of 1H-indole-3-carbaldehyde quinolin-8-ylhydrazone in the mouse plasma samples. The samples were prepared for analysis following liquid-liquid extraction using amodiaquin as internal standard. The lower limit of quantitation was 1.04 ng/mL.
Pharmacokinetic parameters were calculated using non-compartmental analysis tool of WINNONLIN™ Enterprise software (Version 5.1.1). […]

[1] = male, Swiss Albino, mouse, plasma, iv, 3 mg/kg, mouse, intravenous bolus 3 mg/kg, N = 3, read-out: Mean plasma concentration
[2] = male, Swiss Albino, mouse, plasma, iv, 3 mg/kg, mouse, intravenous bolus 3 mg/kg, individual mice, LLOQ 1.04 ng/mL, read-out: Individual plasma concentration
[3] = male, Swiss Albino, mouse, plasma, oral, 15 mg/kg, mouse, oral solution 15 mg/kg, N = 3, read-out: Mean plasma concentration
[4] = male, Swiss Albino, plasma, mouse, IV 3 mg/kg
[5] = male, Swiss Albino, plasma, mouse, oral solution 15 mg/kg

- concentration at 0.5 h (male, Swiss Albino, mouse, plasma, iv, 3 mg/kg, intravenous bolus 3 mg/kg, N = 3): 292 ng/mL
- concentration at 0.083 h (male, Swiss Albino, mouse, plasma, iv, 3 mg/kg, mouse plasma, IV 3 mg/kg, 0.083 h sample, read-out: Initial conc. (repeat analysis)): 47.3 ng/mL
- concentration at 0.083 h (male, Swiss Albino, mouse, plasma, iv, 3 mg/kg, mouse plasma, IV 3 mg/kg, 0.083 h sample, read-out: Repeated conc. (repeat analysis)): 75.6 ng/mL
- concentration at 0.25 h (male, Swiss Albino, mouse, plasma, iv, 3 mg/kg, mouse plasma, IV 3 mg/kg, 0.25 h samples, read-out: Initial conc. (repeat analysis)): 130 ng/mL
- concentration at 0.25 h (male, Swiss Albino, mouse, plasma, iv, 3 mg/kg, mouse plasma, IV 3 mg/kg, 0.25 h samples, read-out: Repeated conc. (repeat analysis)): 200 ng/mL
- half-life (male, Swiss Albino, mouse, plasma, iv, 3 mg/kg, mouse, IV 3 mg/kg, read-out: T1/2 (converted)): 100 min
- half-life (male, Swiss Albino, mouse, plasma, iv, 3 mg/kg, mouse, following intravenous administration 3 mg/kg, read-out: Half-life (converted)): ~102 min
- concentration at 0.083 h (male, Swiss Albino, mouse, plasma, iv, 3 mg/kg, mouse, intravenous bolus 3 mg/kg, 0.083 h, N = 2, read-out: Mean plasma concentration): 1690 ng/mL
- concentration at 0.25 h (male, Swiss Albino, mouse, plasma, iv, 3 mg/kg, mouse, intravenous bolus 3 mg/kg, 0.25 h, N = 3, read-out: Mean plasma concentration): 244 ng/mL
- concentration at 0.25 h (male, Swiss Albino, mouse, plasma, iv, 3 mg/kg, mouse, intravenous bolus 3 mg/kg, 0.25 h, individual mice, LLOQ 1.04 ng/mL, read-out: Individual plasma concentration): 200 ng/mL
- concentration at 1 h [1]: 147 ng/mL
- concentration at 1 h [2]: 116 ng/mL
- concentration at 2 h [1]: 65.2 ng/mL
- concentration at 2 h [2]: 71.9 ng/mL
- concentration at 4 h [1]: 35.9 ng/mL
- concentration at 4 h [2]: 42.4 ng/mL
- concentration at 8 h [1]: 8.95 ng/mL
- concentration at 8 h [2]: 10.1 ng/mL
- concentration at 12 h [1]: 1.29 ng/mL
- concentration at 12 h (male, Swiss Albino, mouse, plasma, iv, 3 mg/kg, mouse, intravenous bolus 3 mg/kg, individual mice, BLQ = below LLOQ 1.04 ng/mL, read-out: Individual plasma concentration): 1.68 ng/mL
- bioavailability (male, Swiss Albino, mouse, plasma, oral, 15 mg/kg, mouse, oral 15 mg/kg vs IV 3 mg/kg, read-out: F, absolute oral solution bioavailability): ~26%
- concentration at 0.25 h (male, Swiss Albino, mouse, plasma, oral, 15 mg/kg, mouse, oral solution 15 mg/kg, 0.25 h, N = 3, read-out: Mean plasma concentration): 140 ng/mL
- concentration at 1 h [3]: 199 ng/mL
- concentration at 2 h [3]: 96.5 ng/mL
- concentration at 4 h [3]: 146 ng/mL
- concentration at 8 h [3]: 75.3 ng/mL
- concentration at 8 h (male, Swiss Albino, mouse, plasma, oral, 15 mg/kg, mouse, oral solution 15 mg/kg, individual mice, LLOQ 1.04 ng/mL, read-out: Individual plasma concentration): 76.7 ng/mL
- concentration at 12 h [3]: 8.91 ng/mL
- concentration at 0.5 h (male, Swiss Albino, mouse, plasma, oral, 15 mg/kg, oral solution 15 mg/kg, N = 3): 148 ng/mL
- half-life (male, Swiss Albino, mouse, plasma, po, 15 mg/kg, mouse, oral solution 15 mg/kg, read-out: T1/2 (converted)): 119 min
- AUC [4]: 913 ng·h/mL
- AUC(0-t) [4]: 909 ng·h/mL
- Cmax [4]: 1690 ng/mL
- clearance [4]: 54.8 mL/min/kg
- Tmax (male, Swiss Albino, plasma, mouse, IV 3 mg/kg, first sampling point): 4.98 min
- Vd (male, Swiss Albino, plasma, mouse, IV 3 mg/kg, read-out: Vds. (volume of distribution)): 4.28 L/kg
- AUC [5]: 1170 ng·h/mL
- AUC(0-t) [5]: 1140 ng·h/mL
- Cmax [5]: 199 ng/mL
- Tmax [5]: 60 min
- Accepted conc. (repeat analysis) (mouse plasma, IV 3 mg/kg, 0.083 h sample): 75.62 c ng/mL
Structure (SMILES): C(=NNc1cccc2cccnc12)c1c[nH]c2ccccc12 [Compound C3, 1H-indole-3-carbaldehyde quinolin-8-ylhydrazone]
